Reference: patent US4927941A, “Fluorine-containing nitroazole derivatives and radiosensitizer comprising the same” (Yasunori Nishijima & Daikin Industries Ltd., priority 1987, dated 1990)

Tested on: EMT-6 tumor cells
Assay: Radiosensitization effect on tumor transplanted in animal (ER in vivo)
Parameters: species or system Balb/c mouse
Settings: in a low concentration
Procedure: To both thighs of male Balb/c mouse (8 weeks; 4 mice in a group), 10^5 of EMT-6 tumor cells were subcutaneously inoculated. After the diameter of the tumor reached about 1 cm, a solution of a compound to be examined in saline was intraperitonealy administered (200 mg/kg). After 40 minutes from the administration, X-ray was irradiated at a dose rate of 450 rad/min. for 5 minutes and then the mouse was sacrificed.
After the mouse was systemically sterilized, the tumor was taken out and the tissue was homogenated. Then, 22 ml of trypsin was added to the homogenate and stirred for 50 minutes at 37° C. The number of cells in the supernatant was counted. A predetermined amount of the cells was introduced in a plastic plate having a diameter of about 5 cm. To the plate, 5 ml of medium was added and cultured in a CO2 incubator. The plates containing the irradiated and unirradiated cells were removed from the incubator after 9 days and 10 days incubation, respectively. The cells were fixed by methanol and stained by Giemsa stain. Then, the number of colonies formed were counted.
The survival rate was calculated with using the unirradiated cells as control.

Q: For O=[N+]([O-])c1ncn(CC(O)CF)n1 (stereo not drawn) [(13), 1-(3'-fluoro-2'-hydroxypropyl)-3-nitro-1,2,4-triazole], which “ER in vivo in comparison with comparative compounds (1) and (2)” value is on record?
A: comparable

Tested on: not listed separately
Assay: in vivo
Settings: not given

Q: With COCCNC(=O)C(F)(F)Cn1cnc([N+](=O)[O-])n1 [(2), 3-(3'-nitro-1',2',4'-triazol-1'-yl)-2,2-difluoropropionic acid methoxyethylamide] as the compound, how does the LD50 read?
A: > 3000 mg/kg

Q: For O=C(NCCO)C(F)(F)Cn1cnc([N+](=O)[O-])n1 [(3), 3-(3'-nitro-1',2',4'-triazol-1'-yl)-2,2-difluoropropionic acid hydroxyethylamide], which LD50 is on record?
A: 1600 mg/kg

Q: Which LD50 does the source give for COCC(F)Cn1cnc([N+](=O)[O-])n1 (stereo not drawn) [(7), 1-(2'-fluoro-3'-methoxypropyl)-3-nitro-1,2,4-triazole] here?
A: > 2000 mg/kg

Q: For O=[N+]([O-])c1ncn(CC(O)CF)n1 (stereo not drawn) [(13), 1-(3'-fluoro-2'-hydroxypropyl)-3-nitro-1,2,4-triazole], which LD50 is on record?
A: 700 mg/kg

Q: Which LD50 does the source give for NC(=O)C(F)(F)Cn1cnc([N+](=O)[O-])n1 [(43), 3-(3'-nitro-1',2', 4'-triazol-1'-yl)-2,2-difluoropropionamide] here?
A: 700 mg/kg

Q: With CC(C)NC(=O)C(F)(F)Cn1cnc([N+](=O)[O-])n1 [(53), 3-(3'-nitro-1', 2', 4'-triazol-1'-yl)-2,2-difluoropropionic acid isopropylamide] as the compound, how does the LD50 read?
A: 600 mg/kg

Q: For CC(O)CNC(=O)C(F)(F)Cn1cnc([N+](=O)[O-])n1 (stereo not drawn) [(60), 3-(3'-nitro-1', 2', 4'-triazol-1'-yl)-2,2-difluoropropionic acid isopropanolamide], which LD50 is on record?
A: 1200 mg/kg

Q: With NC(=O)CCNC(=O)C(F)(F)Cn1cnc([N+](=O)[O-])n1 [(62), 1-(3'-nitro-1',2',4'-triazol-1'-yl)-2,2-difluoropropionic acid 3-alanylamide] as the compound, how does the LD50 read?
A: 1500 mg/kg

Q: Which LD50 does the source give for O=[N+]([O-])c1ncn(CC(F)COCC(O)CO)n1 (stereo not drawn) [(65), 1-(2'-fluoro-4'-oxo-6',7'-dihydroxyheptyl)-3-nitro-1,2,4-triazole] here?
A: 1600 mg/kg

Tested on: hypoxic cells
Assay: not given
Settings: versus no Misonidazole; cited from earlier work

Q: For COCC(O)Cn1ccnc1[N+](=O)[O-] (stereo not drawn) [Misonidazole, 1-(2-Nitro-1-imidazolyl)-3-methoxy-2-propanol], which “effectiveness as hypoxic cell sensitizer” value is on record?
A: about twice as effective as when no Misonidazole is used

Tested on: hypoxic cells
Assay: not given
Settings: administered in human beings; cited from earlier work

Q: For COCC(O)Cn1ccnc1[N+](=O)[O-] (stereo not drawn) [Misonidazole, 1-(2-Nitro-1-imidazolyl)-3-methoxy-2-propanol], which “sensitizing effect in human beings” value is on record?
A: No sensitizing effect was confirmed
